# Literature values, collected in patent US20090036541A1, “Applicator and chemical combination for better topical anesthesia” (priority 2007, published 2009).
# Conditions: compared with lidocaine
smiles,measurement,value
CCCCNc1ccc(C(=O)OCCN(C)C)cc1 [tetracaine],potency relative to lidocaine,ten-fold
